Results as given in patent publication US11365188B2, “JAK inhibitors” (priority 2018, dated 2022).

Columns and labels:
Type in all cases: biochemical
JAK1 = JAK1 (Homo sapiens, UniProt P23458); assay: JAK Kinase Assay (JAK1, Caliper EZ Reader, fluoresceinated peptide); settings: ATP 76.5 μM; JAK1 10 nM; 120 minutes at room temperature; read-out: JAK1 inhibition
JAK3 = biological target: T1, JAK3 (Homo sapiens, UniProt P52333); assay: JAK3 Assay (Caliper EZ Reader, fluoresceinated peptide); settings: ATP 3.5 μM; JAK3 0.5 nM; 30 minutes at room temperature; read-out: JAK3 inhibition
T1 sequence (P52333 1-1124): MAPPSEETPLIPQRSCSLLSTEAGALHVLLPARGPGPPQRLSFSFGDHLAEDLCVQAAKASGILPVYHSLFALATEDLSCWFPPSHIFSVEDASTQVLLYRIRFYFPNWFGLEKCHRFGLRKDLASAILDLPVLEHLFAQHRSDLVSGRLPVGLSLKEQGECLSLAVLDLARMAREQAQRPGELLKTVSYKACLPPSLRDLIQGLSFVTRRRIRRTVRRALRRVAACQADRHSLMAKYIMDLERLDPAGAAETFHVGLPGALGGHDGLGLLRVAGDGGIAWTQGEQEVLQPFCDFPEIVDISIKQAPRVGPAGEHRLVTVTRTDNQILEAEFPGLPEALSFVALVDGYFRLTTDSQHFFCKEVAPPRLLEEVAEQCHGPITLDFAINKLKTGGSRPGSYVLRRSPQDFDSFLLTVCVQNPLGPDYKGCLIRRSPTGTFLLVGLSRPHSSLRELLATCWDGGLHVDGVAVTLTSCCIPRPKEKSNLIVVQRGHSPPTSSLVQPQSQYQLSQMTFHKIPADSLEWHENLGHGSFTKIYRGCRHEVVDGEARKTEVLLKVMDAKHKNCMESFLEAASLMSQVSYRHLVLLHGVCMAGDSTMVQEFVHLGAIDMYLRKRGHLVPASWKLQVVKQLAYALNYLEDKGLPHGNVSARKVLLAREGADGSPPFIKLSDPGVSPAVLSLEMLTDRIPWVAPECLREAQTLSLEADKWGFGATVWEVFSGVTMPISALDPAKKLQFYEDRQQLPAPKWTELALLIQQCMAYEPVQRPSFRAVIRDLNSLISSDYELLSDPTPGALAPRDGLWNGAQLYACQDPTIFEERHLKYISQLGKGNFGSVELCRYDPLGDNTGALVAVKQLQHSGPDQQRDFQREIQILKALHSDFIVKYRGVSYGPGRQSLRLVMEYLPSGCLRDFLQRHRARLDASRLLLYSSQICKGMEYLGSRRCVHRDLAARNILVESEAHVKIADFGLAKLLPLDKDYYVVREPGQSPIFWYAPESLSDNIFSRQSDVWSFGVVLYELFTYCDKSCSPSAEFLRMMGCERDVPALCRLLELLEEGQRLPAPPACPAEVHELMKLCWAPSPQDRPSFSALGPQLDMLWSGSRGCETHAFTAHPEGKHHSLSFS
Procedure: JAK3 Assay 384-well plates in the left foot butoxy measured progress. The final assay volume was 25 μL, 250 nL 100× compounds, 10 μL enzyme mix and 15 μL substrate mix (fluoresceinated peptide and ATP) in assay buffer (50 mM HEPES (pH 7.5), 10 mM MgCl2, 0.01% TritonX-100, 0.01% Brij35, 0.5 mM EGTA and 2 mM DTT) prepared as test compound. By mixing the JAK3 with substrates and test compounds to start the reaction. The reaction mixture was incubated for 30 minutes at room temperature, then added 30 μL stop buffer for each sample to terminate the reaction with 50 mM EDTA. After termination of the kinase reaction, the proportion of phosphorylated product was determined as a fraction of total peptide substrate using Caliper EZ Reader II. Inhibition data were calculated by comparison with 100% of the reaction mixture without enzyme inhibition and vehicle-only reaction mixture billion % inhibition compared. The final concentration of reagents in the assays is: ATP, 3.5 μM; JAK3 fluorescent peptide (5-FAM-EEPLYWSFPAKKK-CONH2), 3 μM; JAK3, 0.5 nM; and DMSO, 1%. Dose response curve were generated to determine the concentration required for IC50 of JAK3 activity.

JAK2 = JAK2 (Homo sapiens, UniProt O60674); assay: JAK2 Assay (Caliper EZ Reader, fluoresceinated peptide); settings: ATP 11.4 μM; JAK2 0.25 nM; 15 minutes at room temperature; read-out: JAK2 inhibition
Procedure: JAK2 Assay 384-well plates in the left foot butoxy measured progress. The final assay volume was 25 μL, 250 nL 100× compounds, 10 μL enzyme mix and 15 μL substrate mix (fluoresceinated peptide and ATP) in assay buffer (50 mM HEPES (pH 7.5), 10 mM MgCl2, 0.01% TritonX-100, 0.01% Brij35, 0.5 mM EGTA and 2 mM DTT) prepared as test compound By mixing the JAK2 with substrates and test compounds to start the reaction. The reaction mixture was incubated for 15 minutes at room temperature, then added 30 μL stop buffer for each sample to terminate the reaction with 50 mM EDTA. After termination of the kinase reaction, the proportion of phosphorylated product was determined as a fraction of total peptide substrate using Caliper EZ Reader 1 Inhibition data were calculated by comparison with 100% of the reaction mixture without enzyme inhibition and vehicle-only reaction mixture billion % inhibition compared. The final concentration of reagents in the assays is: ATP, 11.4 μM; JAK2 fluorescent peptide (5-FAM-EEPLYWSFPAKKK-CONH2), 3 μM; JAK2, 0.25 nM; and DMSO, 1%. Dose response curve were generated to determine the concentration required for IC50 of JAK2 activity.

JAK2, sequence (O60674 whole entry, species assumed): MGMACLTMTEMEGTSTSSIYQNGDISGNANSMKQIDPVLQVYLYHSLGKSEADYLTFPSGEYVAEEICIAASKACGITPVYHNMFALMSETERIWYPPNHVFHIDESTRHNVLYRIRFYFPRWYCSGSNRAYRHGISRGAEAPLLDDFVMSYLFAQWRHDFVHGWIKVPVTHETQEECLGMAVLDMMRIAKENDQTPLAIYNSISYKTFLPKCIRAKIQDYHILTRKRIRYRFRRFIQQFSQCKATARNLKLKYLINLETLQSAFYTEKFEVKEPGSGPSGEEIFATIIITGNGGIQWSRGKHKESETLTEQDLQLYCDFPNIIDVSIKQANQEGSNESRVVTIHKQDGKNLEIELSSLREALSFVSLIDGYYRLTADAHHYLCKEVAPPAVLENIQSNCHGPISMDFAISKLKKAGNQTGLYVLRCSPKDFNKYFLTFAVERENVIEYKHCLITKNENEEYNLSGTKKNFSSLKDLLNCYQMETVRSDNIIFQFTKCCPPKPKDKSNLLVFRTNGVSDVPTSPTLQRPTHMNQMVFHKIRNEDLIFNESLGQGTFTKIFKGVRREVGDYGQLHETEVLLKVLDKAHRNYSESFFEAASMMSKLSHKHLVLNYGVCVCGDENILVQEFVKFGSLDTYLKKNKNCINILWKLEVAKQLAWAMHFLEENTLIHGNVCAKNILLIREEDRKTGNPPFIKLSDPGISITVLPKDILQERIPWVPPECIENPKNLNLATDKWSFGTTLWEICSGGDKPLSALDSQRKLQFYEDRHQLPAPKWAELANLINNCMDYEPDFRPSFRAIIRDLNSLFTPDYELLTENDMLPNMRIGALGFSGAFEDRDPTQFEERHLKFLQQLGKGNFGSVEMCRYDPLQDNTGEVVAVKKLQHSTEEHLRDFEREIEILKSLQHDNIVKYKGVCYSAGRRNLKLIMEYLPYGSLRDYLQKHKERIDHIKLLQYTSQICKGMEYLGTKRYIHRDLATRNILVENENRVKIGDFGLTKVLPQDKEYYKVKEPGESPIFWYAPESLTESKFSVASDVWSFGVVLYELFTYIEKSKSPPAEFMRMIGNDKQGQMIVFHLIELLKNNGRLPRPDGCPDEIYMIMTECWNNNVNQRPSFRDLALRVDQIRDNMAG
JAK1, sequence (P23458 whole entry, species assumed): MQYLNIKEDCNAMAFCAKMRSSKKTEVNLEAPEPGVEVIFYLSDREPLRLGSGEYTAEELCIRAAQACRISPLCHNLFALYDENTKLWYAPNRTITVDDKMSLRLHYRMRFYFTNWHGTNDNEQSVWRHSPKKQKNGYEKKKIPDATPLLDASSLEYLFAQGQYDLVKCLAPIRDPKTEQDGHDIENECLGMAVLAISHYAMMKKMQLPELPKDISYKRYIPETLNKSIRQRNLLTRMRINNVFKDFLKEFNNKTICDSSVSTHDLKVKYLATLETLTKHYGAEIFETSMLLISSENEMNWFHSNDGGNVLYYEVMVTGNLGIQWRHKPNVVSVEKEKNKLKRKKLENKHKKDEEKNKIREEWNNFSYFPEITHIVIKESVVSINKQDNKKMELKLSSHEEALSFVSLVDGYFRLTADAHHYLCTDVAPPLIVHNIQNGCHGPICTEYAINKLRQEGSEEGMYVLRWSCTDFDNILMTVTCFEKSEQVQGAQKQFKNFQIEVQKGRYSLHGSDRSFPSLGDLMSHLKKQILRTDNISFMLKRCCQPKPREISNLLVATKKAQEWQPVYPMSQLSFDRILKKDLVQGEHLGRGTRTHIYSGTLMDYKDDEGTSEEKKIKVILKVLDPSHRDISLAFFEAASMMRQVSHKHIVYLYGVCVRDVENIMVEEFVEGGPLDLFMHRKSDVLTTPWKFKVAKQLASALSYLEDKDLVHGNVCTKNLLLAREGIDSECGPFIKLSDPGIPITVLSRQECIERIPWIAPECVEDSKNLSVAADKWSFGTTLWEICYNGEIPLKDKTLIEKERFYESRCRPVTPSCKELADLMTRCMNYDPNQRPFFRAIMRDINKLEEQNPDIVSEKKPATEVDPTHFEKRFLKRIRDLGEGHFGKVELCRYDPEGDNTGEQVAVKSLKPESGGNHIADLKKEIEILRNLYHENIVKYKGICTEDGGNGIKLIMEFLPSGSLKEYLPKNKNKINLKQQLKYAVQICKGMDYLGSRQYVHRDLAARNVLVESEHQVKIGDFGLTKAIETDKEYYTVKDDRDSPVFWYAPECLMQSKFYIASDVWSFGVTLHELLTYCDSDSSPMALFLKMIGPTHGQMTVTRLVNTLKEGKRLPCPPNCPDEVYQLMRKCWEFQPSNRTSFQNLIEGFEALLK

Structure (SMILES)	IC50 (JAK1) [nM]	IC50 (JAK3) [nM]	IC50 (JAK2) [nM]
C#Cc1ccc(C(=O)N2CC3(CC(N(C)c4ncnc5[nH]ccc45)C3)C2)c(F)c1 [Compound 41, (4-ethynyl-2-fluorophenyl)(6-(methyl(7H-pyrrolo[2,3-d]pyrimidin-4-yl)amino)-2-azaspiro[3.3]heptan-2-yl)methanone]	≤ 10	1000 to 10000	10 to 100
CN(c1ncnc2[nH]ccc12)C1CC2(C1)CN(C(=O)CO)C2 [Compound 3, 2-hydroxy-1-(6-(methyl(7H-pyrrolo[2,3-d]pyrimidin-4-yl)amino)-2-azaspiro[3.3]heptan-2-yl)ethanone]	100 to 1000	1000 to 10000	100 to 1000
C#Cc1ccc(C(=O)N2CC3(CC(N(C)c4ncnc5[nH]ccc45)C3)C2)cc1F [Compound 47, (4-ethynyl-3-fluorophenyl)(6-(methyl(7H-pyrrolo[2,3-d]pyrimidin-4-yl)amino)-2-azaspiro[3.3]heptan-2-yl)methanone]	≤ 10	1000 to 10000	100 to 1000
CN(c1ncnc2[nH]ccc12)C1CCC2(CC1)CCN(C(=O)CCC(F)(F)F)CC2 [Compound 91, 4,4,4-Trifluoro-1-{9-[methyl-(7H-pyrrolo[2,3-d]pyrimidin-4-yl)-amino]-3-aza-spiro[5.5]undec-3-yl}-butan-1-one]	100 to 1000	1000 to 10000	100 to 1000
CN(c1ncnc2[nH]ccc12)C1CCC2(CC1)CCN(C(=O)c1cccc(C#N)c1)CC2 [Compound 102, 3-{9-[Methyl-(7H-pyrrolo[2,3-d]pyrimidin-4-yl)-amino]-3-aza-spiro[5.5]undecane-3-carbonyl}-benzonitrile]	100 to 1000	100 to 1000	100 to 1000
CCCS(=O)(=O)N1CCC2(CCC(N(C)c3ncnc4c3CCN4)CC2)CC1 [Compound 96, (6,7-Dihydro-5H-pyrrolo[2,3-d]pyrimidin-4-yl)-methyl-[3-(propane-1-sulfonyl)-3-aza-spiro[5.5]undec-9-yl]-amine]	100 to 1000	1000 to 10000	100 to 1000
CN(c1ncnc2[nH]ccc12)C1CCC2(CC1)CCN(C(=O)c1csc3ccccc13)CC2 [Compound 92, Benzo[b]thiophen-3-yl-{9-[methyl-(7H-pyrrolo[2,3-d]pyrimidin-4-yl)-amino]-3-aza-spiro[5.5]undec-3-yl}-methanone]	100 to 1000	100 to 1000	100 to 1000
Cc1ccsc1C(=O)N1CCC2(CCC(N(C)c3ncnc4[nH]ccc34)CC2)CC1 [Compound 94, {9-[Methyl-(7H-pyrrolo[2,3-d]pyrimidin-4-yl)-amino]-3-aza-spiro[5.5]undec-3-yl}-(3-methyl-thiophen-2-yl)-methanone]	100 to 1000	1000 to 10000	100 to 1000
CN(c1ncnc2[nH]ccc12)C1CCC2(CC1)CCN(C(=O)c1ccc(C#N)cc1F)CC2 [Compound 84, 3-Fluoro-4-{9-[methyl-(7H-pyrrolo[2,3-d]pyrimidin-4-yl)-amino]-3-aza-spiro[5.5]undecane-3-carbonyl}-benzonitrile]	100 to 1000	1000 to 10000	100 to 1000
Cc1cc(C(=O)N2CC3(CC(N(C)c4ncnc5[nH]ccc45)C3)C2)ccc1C#N [Compound 34, 2-methyl-4-(6-(methyl(7H-pyrrolo[2,3-d]pyrimidin-4-yl)amino)-2-azaspiro[3.3]heptane-2-carbonyl)benzonitrile]	10 to 100	1000 to 10000	1000 to 10000
CN(c1ncnc2[nH]ccc12)C1CC2(C1)CN(C(=O)c1cnccn1)C2 [Compound 18, (6-(methyl(7H-pyrrolo[2,3-d]pyrimidin-4-yl)amino)-2-azaspiro[3.3]heptan-2-yl)(pyrazin-2-yl)methanone]	100 to 1000	≥ 10000	1000 to 10000
CN(c1ncnc2[nH]ccc12)C1CC2(C1)CN(C(=O)c1cc3ccccc3s1)C2 [Compound 20, benzo[b]thiophen-2-yl(6-(methyl(7H-pyrrolo[2,3-d]pyrimidin-4-yl)amino)-2-azaspiro[3.3]heptan-2-yl)methanone]	10 to 100	1000 to 10000	1000 to 10000
Cc1cc(C#N)ccc1C(=O)N1CC2(CC(N(C)c3ncnc4[nH]ccc34)C2)C1 [Compound 44, 3-methyl-4-(6-(methyl(7H-pyrrolo[2,3-d]pyrimidin-4-yl)amino)-2-azaspiro[3.3]heptane-2-carbonyl)benzonitrile]	100 to 1000	≥ 10000	1000 to 10000
CN(c1ncnc2[nH]ccc12)C1CCC2(CC1)CCN(C(=O)C1CC1)CC2 [Compound 99, Cyclopropyl-{9-[methyl-(7H-pyrrolo[2,3-d]pyrimidin-4-yl)-amino]-3-aza-spiro[5.5]undec-3-yl}-methanone]	10 to 100	1000 to 10000	100 to 1000
CN(c1ncnc2[nH]ccc12)C1CC2(C1)CN(C(=O)Cc1c[nH]c3ccccc13)C2 [Compound 23, 2-(1H-indol-3-yl)-1-(6-(methyl(7H-pyrrolo[2,3-d]pyrimidin-4-yl)amino)-2-azaspiro[3.3]heptan-2-yl)ethanone]	100 to 1000	1000 to 10000	1000 to 10000
C#Cc1ccc(C(=O)N2CC3(CC(N(C)c4ncnc5[nH]ccc45)C3)C2)c(Cl)c1 [Compound 43, (2-chloro-4-ethynylphenyl)(6-(methyl(7H-pyrrolo[2,3-d]pyrimidin-4-yl)amino)-2-azaspiro[3.3]heptan-2-yl)methanone]	≤ 10	1000 to 10000	100 to 1000
CN(c1ncnc2[nH]ccc12)C1CC2(C1)CN(C(=O)c1cccc(C#N)c1)C2 [Compound 11, 3-(6-(methyl(7H-pyrrolo[2,3-d]pyrimidin-4-yl)amino)-2-azaspiro[3.3]heptane-2-carbonyl)benzonitrile]	10 to 100	1000 to 10000	100 to 1000
Cc1cncc(C(=O)N2CC3(CC(N(C)c4ncnc5[nH]ccc45)C3)C2)n1 [Compound 29, (6-(methyl(7H-pyrrolo[2,3-d]pyrimidin-4-yl)amino)-2-azaspiro[3.3]heptan-2-yl)(6-methylpyrazin-2-yl)methanone]	100 to 1000	≥ 10000	1000 to 10000
CN(c1ncnc2[nH]ccc12)C1CCC2(CC1)CCN(C(=O)C1CCC(=O)CC1)CC2 [Compound 82, 4-{9-[Methyl-(7H-pyrrolo[2,3-d]pyrimidin-4-yl)-amino]-3-aza-spiro[5.5]undecane-3-carbonyl}-cyclohexanone]	100 to 1000	1000 to 10000	1000 to 10000
